Publication PMC4750701, “Role of Mitochondrial RNA Polymerase in the Toxicity of Nucleotide Inhibitors of Hepatitis C Virus” (Antimicrobial Agents and Chemotherapy, 2016)

Tests used:
[1] = Cytotoxicity in primary rat neonatal cardiomyocytes, 5 days; format: cell-based; settings: Sprague Dawley, 5-day treatment, read-out: CC50 (mean ± standard deviation) in primary rat cardiomyocytes
[2] = test system: RNA transcription products from PolI (preribosome), PolII (myc), and PolRMT (ATP6) in PC-3 cells; experiment: RNA transcripts in PC-3 cells by RT-PCR; format: cell-based, human; settings: 100 μM, 1-day treatment
Procedure: CX-5461, a known specific RNA PolI inhibitor, was used as the positive control ([25]). The growth medium was aspirated and replaced with 200 μl of 100 μM BMS-986094, 5 μM CX-5461, or DMSO control prepared in growth medium. At selected time points (0.5, 1, 4, 8, and 24 h), duplicate wells of the compounds and DMSO control were aspirated, the cells were washed 1× with PBS (pH 7.4), and 100 μl of RNA lysis buffer was added (Promega, Sunnyvale, CA). RNA was purified using the Wizard SV 96 total RNA isolation kit (Promega) and eluted in 100 μl of nuclease-free water. The TaqMan RNA-to-Ct 1-step kit (ABI/Life Technologies) was used for reverse transcription-quantitative PCR (RT-qPCR) amplification and quantification, using the 7900HT Fast real-time PCR system (ABI) under the following conditions: 15 min at 48°C for reverse transcription and 10 min at 95°C for activation, followed by 40 cycles of 15 s at 95°C for denaturation and 1 min at 60°C for annealing and extension. […] Transcripts were quantified relative to the standard curves, and the results expressed as the percentages of the average value of DMSO control wells.

[3] = Spare respiratory capacity in primary rat cardiomyocytes; settings: Sprague Dawley, rat, primary rat neonatal cardiomyocytes
Procedure: (§1) Primary rat neonatal cardiomyocytes were isolated from 3-day-old Sprague Dawley rat pups as described previously ([14]).
(§2) Mitochondrial respiration was monitored by measuring the rate of oxygen consumption (OCR) of PC-3 cells after 3-day treatments with the compounds, using a Seahorse extracellular flux analyzer (XF^e-96) based on published protocols ([22][–][24]). The optimal cell seeding was determined by measuring the basal OCR of PC-3 cells that were seeded at different densities of 2.5 × 10^3, 5 × 10^3, 7.5 × 10^3, and 10 × 10^3 cells/well in XF 96-well plates (Seahorse Bioscience, North Billerica, MA) and incubated with 0.5% dimethyl sulfoxide (DMSO) for 3 days. […] Each reagent in the Mito Stress test kit (Seahorse Biosciences), i.e., ATP synthase inhibitor oligomycin, mitochondrial uncoupler carbonyl cyanide-4-(trifluoromethoxy)phenylhydrazone (FCCP), and a fixed-ratio mixture of the mitochondrial complex I (NADH dehydrogenase) inhibitor rotenone and the complex III (CoQH2-cytochrome c reductase) inhibitor antimycin A, was titrated. […] The OCR signals were normalized by cell numbers using DNA content determined by Hoechst's stain as described below.
(§3) PC-3 cells were seeded at a density of 5 × 10^3 cells/well in XF 96-well plates and incubated with the compounds for 3 days. […] Mitochondrial respiration was monitored by measuring OCR on a Seahorse extracellular flux analyzer (XF^e-96). […]

[4] = test system: mitochondrial respiration in primary rat cardiomyocytes; experiment: as above; settings: primary rat cardiomyocytes, 3-day treatments
Procedure: as §1, §2, §3

[5] = Chronic toxicology studies in dogs; format: in vivo; settings: up to 39 weeks
[6] = test system: Primary human hepatocytes; parameters: method as in PMID 24419349; settings: 5 days, read-out: Mean CC50 ± SD in Hepatic cells (primary); cited from earlier work
Quiescent PBMCs = test system: Quiescent PBMCs; parameters: method as in PMID 24419349; settings: 5 days; read-out: Mean CC50 ± SD in PBMCs Quiescent; cited from earlier work
Stimulated PBMCs = test system: Stimulated PBMCs; parameters: method as in PMID 24419349; settings: 5 days; read-out: Mean CC50 ± SD in PBMCs Stimulated; cited from earlier work

SMILES	CC50 at 5 days [1] [µM]	relative levels of RNA transcripts (preribosomal, myc, mitochondrial ATP6, total RNA) [2]	CC50 at 3 days [3] [µM]	selectivity of effect on spare respiratory capacity versus DNA and ATP levels [4]	effects during chronic toxicology studies [5]	CC50 [6] [µM]	CC50 (Quiescent PBMCs) [µM]	CC50 (Stimulated PBMCs) [µM]
COc1nc(N)nc2c1ncn2[C@@H]1O[C@H](COP(=O)(N[C@@H](C)C(=O)OCC(C)(C)C)Oc2cccc3ccccc23)[C@@H](O)[C@@]1(C)O (some centres unmarked) [BMS-986094]	0.68 ± 0.32	decreased the relative levels of multiple RNA transcripts	0.43 ± 0.14	selective inhibition of mitochondrial respiration				
CC(C)OC(=O)[C@H](C)N[P@](=O)(OC[C@H]1O[C@@](C#N)(c2ccc3c(N)ncnn23)[C@](C)(O)[C@@H]1OC(=O)C(C)C)Oc1ccccc1 [GS-6620]					did not show	> 100	> 100	> 100
